These results are taken from BindingDB's records for doi:10.1016/0960-894X(95)00370-9 (1995).

The target in this assay is Type-1 angiotensin II receptor A (Rattus norvegicus) (UniProt P25095). Briefly: Tested for binding affinity against angiotensin II receptor in rat adrenal cortex.

Molecules are shown by their SMILES.

Sequence of Type-1 angiotensin II receptor A (Rattus norvegicus) (P25095 whole entry, looked up): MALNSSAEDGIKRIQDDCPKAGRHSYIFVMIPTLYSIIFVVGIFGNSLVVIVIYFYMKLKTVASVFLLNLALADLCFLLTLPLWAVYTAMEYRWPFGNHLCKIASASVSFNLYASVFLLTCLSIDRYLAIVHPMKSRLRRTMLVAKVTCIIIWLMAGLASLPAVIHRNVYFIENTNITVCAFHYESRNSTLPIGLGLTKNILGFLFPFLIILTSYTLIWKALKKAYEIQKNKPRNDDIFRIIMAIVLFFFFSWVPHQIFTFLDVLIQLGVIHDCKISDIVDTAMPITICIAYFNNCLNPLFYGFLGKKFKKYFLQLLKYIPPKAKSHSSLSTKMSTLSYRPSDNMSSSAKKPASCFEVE

Regarding `CCCc1cc(=O)n(CCNC(=O)C(c2ccccc2)c2ccccc2)c(=O)n1Cc1ccc(-c2ccccc2-c2nnn[nH]2)cc1` [N-(2-{2,6-Dioxo-4-propyl-3-[2'-(1H-tetrazol-5-yl)-biphenyl-4-ylmethyl]-3,6-dihydro-2H-pyrimidin-1-yl}-ethyl)-2,2-diphenyl-acetamide], the half-maximal inhibitory concentration (IC50) – broadly, the midpoint of a concentration-inhibition curve – turned out to be 14 nM.

The compound `CCCc1cc(=O)n(CCN2C(=O)c3ccccc3C2=O)c(=O)n1Cc1ccc(-c2ccccc2-c2nnn[nH]2)cc1` [2-(2-{2,6-Dioxo-4-propyl-3-[2'-(1H-tetrazol-5-yl)-biphenyl-4-ylmethyl]-3,6-dihydro-2H-pyrimidin-1-yl}-ethyl)-isoindole-1,3-dione] gave an IC50 of 4.4 nM.
